# Measured values from patent EP4039264A1, “ORAL PEPTIDE ANTAGONISTS OF MULTIPLE CHEMOKINE RECEPTORS FOR REVERSING LOSS OF SYNAPSES AND DENDRITIC SPINES” (Creative Bio-Peptides Inc., priority 2021, dated 2022).
# Key:
# [1] = molecular target: CXCR4 (Mus musculus, UniProt P70658); settings: CXCR4 tropic gp120; cultured mouse hippocampal neurons devoid of immune cells
# Description: Aβd/t was isolated from medium of cultured 7PA2 cells, a CHO cell line expressing a form of human APP found in Familial AD. […] Neuronal cultures, fixation, permeabilization, blocking and immunostaining is performed starting with E16.5 mouse hippocampal neurons by common methods in broad use.
# Images of fixed neurons immunostained for cofilin, growth cones and nuclei captured across the entire coverslip are exported to ImageJ. Macro functions are applied to set local threshold and shape/size segmentation for both the cofilin and growth cone antibodies. Cofilin stained material that is not within neurites is eliminated. Results are reported as rods/nucleus, number of rods per area, rods as percent of total area, or, if NeuN stained or identified morphologically, rods per neuron.
# [2] = test system: CCR5; settings: pharmacologic blockade of CCR5 after stroke and traumatic brain injury; cited from earlier work
# [3] = molecular target: T1, CCR5 (Mus musculus, UniProt P51682); assay: gp120-induced cofilin-rod formation in cultured hippocampal neurons, CCR5-tropic gp120 (Fig. 2A); format: cell-based; settings: cultured mouse hippocampal neurons devoid of immune cells
# T1 construct: neurons express CCR5 and CXCR4 receptors that control synapse regeneration; endogenous in cells; host or cells: primary E16.5 mouse hippocampal neurons
# [4] = HAND phase 2 human trials and brain scans; cited from earlier work
# Sequence of CXCR4 (P70658 whole entry): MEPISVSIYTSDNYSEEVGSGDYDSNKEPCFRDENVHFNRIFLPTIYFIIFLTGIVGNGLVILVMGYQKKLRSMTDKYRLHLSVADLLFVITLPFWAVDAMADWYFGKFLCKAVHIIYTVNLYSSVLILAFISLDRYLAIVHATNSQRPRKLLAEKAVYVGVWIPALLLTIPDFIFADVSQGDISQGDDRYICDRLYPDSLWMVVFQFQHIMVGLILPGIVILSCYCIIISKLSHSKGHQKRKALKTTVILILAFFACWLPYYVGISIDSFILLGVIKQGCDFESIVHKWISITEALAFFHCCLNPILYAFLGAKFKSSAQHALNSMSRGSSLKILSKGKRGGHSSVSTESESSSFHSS
# T1 sequence (P51682 whole entry): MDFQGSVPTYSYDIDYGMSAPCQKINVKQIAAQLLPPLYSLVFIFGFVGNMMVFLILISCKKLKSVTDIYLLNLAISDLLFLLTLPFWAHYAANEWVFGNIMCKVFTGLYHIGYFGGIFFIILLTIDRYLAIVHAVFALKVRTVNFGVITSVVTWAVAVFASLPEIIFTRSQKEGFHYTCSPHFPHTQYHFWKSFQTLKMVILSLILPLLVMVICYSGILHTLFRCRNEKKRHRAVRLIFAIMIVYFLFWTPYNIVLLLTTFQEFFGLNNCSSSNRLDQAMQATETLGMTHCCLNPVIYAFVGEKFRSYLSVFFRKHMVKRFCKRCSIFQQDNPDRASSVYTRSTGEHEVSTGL
molecule,measurement,setting,value
c1cc(CN2CCCNCCNCCCNCC2)ccc1CN1CCCNCCNCCCNCC1 [AMD3100],cofilin-rods formed by neurons treated with gp120,[1],inhibited
Cc1nnc(C(C)C)n1[C@@H]1C[C@H]2CC[C@@H](C1)N2CC[C@H](NC(=O)C1CCC(F)(F)CC1)c1ccccc1 [maraviroc],dendritic spines and neurite cortical projections,[2],preservation of dendritic spines and new patterns of neurite cortical projections
same,cofilin-rods formed by neurons treated with gp120,[3],inhibited
[D-Ala1]-Ser-Thr-Thr-Thr-Asn-Tyr-Thr-NH2 [DAPTA],cognitive deficits,[4],able to reverse cognitive deficits
